# Data taken from ChEMBL document CHEMBL4613266, “Discovery and Structure Relationships of Salicylanilide Derivatives as Potent, Non-acidic P2X1 Receptor Antagonists” (J Med Chem, 2020).
# The source made the active and inactive calls. The rule behind the calls is not given here.
# Tests used:
# Assay type in all cases: cell-based
# [1] = biological target: T1, P2X purinoceptor 1 (Homo sapiens) (UniProt P51575); test: Antagonist activity at non-desensitizing human P2X1 receptor ( P2X2/P2X1 chimera) expressed in human 1321N1 cells assessed as inhibition of ATP-induced calcium influx at 10 uM pre-incubated for 30 mins before ATP stimulation by FLIPR assay relative to control
# T1 sequence (whole entry): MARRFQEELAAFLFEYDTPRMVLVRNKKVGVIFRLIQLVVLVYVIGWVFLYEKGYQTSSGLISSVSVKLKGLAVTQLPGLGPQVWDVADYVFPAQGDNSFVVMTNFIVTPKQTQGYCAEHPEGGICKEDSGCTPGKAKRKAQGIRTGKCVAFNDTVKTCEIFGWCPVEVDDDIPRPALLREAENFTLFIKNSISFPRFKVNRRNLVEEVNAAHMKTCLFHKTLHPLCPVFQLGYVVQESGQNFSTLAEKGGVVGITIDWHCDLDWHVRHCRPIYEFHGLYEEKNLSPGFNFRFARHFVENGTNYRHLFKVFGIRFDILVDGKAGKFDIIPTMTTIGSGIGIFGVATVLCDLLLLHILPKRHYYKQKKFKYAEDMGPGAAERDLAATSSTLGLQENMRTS
# [2] = biological target: P2X purinoceptor 1 (Homo sapiens, UniProt P51575); test: (§1) Antagonist activity at non-desensitizing human P2X1 receptor ( P2X2/P2X1 chimera) expressed in human 1321N1 cells assessed as inhibition of ATP-induced calcium influx pre-incubated for 30 mins before ATP stimulation by FLIPR assay relative to control
# [3] = biological target: T2, P2X purinoceptor 2 (Homo sapiens, UniProt Q9UBL9); test: Antagonist activity at human P2X2 receptor expressed in human 1321N1 cells assessed as inhibition of ATP-induced cytosolic calcium influx preincubated for 30 mins followed by ATP addition by Fluo-4 AM dye-based fluorescence assay
# T2 sequence (Q9UBL9 whole entry): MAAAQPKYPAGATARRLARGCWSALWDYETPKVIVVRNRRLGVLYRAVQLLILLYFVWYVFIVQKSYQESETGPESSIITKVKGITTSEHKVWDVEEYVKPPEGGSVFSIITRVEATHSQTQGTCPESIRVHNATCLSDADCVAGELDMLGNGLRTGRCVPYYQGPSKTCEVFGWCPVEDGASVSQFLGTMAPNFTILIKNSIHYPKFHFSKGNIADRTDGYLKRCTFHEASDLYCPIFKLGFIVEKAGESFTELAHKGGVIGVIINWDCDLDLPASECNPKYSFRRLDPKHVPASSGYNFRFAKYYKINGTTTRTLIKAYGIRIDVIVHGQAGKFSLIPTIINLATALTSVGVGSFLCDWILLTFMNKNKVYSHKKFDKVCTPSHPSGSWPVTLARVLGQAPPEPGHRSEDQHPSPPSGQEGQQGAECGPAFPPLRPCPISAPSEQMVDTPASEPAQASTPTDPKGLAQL
# [4] = biological target: T3, P2X purinoceptor 2 (Homo sapiens) (UniProt Q9UBL9); test: Antagonist activity at human P2X2 receptor expressed in human 1321N1 cells assessed as inhibition of ATP-induced cytosolic calcium influx at 10 uM preincubated for 30 mins followed by ATP addition by Fluo-4 AM dye-based fluorescence assay relative to control
# T3 sequence (whole entry): T2 sequence (Q9UBL9 whole entry)
# [5] = biological target: T4, P2X purinoceptor 3 (Homo sapiens, UniProt P56373); test: Antagonist activity at human P2X3 receptor expressed in human 1321N1 cells assessed as inhibition of ATP-induced cytosolic calcium influx preincubated for 30 mins followed by ATP addition by Fluo-4 AM dye-based fluorescence assay
# T4 sequence (P56373 whole entry): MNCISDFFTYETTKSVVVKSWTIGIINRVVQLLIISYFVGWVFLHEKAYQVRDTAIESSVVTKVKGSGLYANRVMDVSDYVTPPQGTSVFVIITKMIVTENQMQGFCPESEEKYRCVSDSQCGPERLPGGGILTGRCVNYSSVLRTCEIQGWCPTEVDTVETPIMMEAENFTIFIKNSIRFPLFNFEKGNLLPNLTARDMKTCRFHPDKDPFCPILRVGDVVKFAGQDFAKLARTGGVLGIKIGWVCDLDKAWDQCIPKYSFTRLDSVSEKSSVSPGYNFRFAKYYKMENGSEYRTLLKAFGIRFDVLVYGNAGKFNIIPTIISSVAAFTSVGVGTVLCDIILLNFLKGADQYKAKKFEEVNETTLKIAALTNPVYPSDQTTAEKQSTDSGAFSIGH
# [6] = biological target: T5, P2X purinoceptor 3 (Homo sapiens) (UniProt P56373); test: Antagonist activity at human P2X3 receptor expressed in human 1321N1 cells assessed as inhibition of ATP-induced cytosolic calcium influx at 10 uM preincubated for 30 mins followed by ATP addition by Fluo-4 AM dye-based fluorescence assay relative to control
# T5 sequence (whole entry): T4 sequence (P56373 whole entry)
# [7] = biological target: T6, P2X purinoceptor 4 (Homo sapiens, UniProt Q99571); test: Antagonist activity at human P2X4 receptor expressed in human 1321N1 cells assessed as inhibition of ATP-induced cytosolic calcium influx preincubated for 30 mins followed by ATP addition by Fluo-4 AM dye-based fluorescence assay
# T6 sequence (Q99571 whole entry): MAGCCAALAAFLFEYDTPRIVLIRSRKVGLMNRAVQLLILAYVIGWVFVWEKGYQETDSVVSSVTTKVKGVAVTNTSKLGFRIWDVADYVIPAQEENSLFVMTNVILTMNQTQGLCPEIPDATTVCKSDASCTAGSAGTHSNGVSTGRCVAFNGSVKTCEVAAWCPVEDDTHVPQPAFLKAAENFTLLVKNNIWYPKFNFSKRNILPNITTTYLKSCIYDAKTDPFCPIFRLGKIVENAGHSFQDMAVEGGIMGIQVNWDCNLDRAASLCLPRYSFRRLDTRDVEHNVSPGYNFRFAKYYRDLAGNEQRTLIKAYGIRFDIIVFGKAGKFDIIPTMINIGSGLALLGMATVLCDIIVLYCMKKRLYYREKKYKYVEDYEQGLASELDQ
# [8] = biological target: T7, P2X purinoceptor 7 (Homo sapiens, UniProt Q99572); test: Antagonist activity at human P2X7 receptor expressed in human 1321N1 cells assessed as inhibition of ATP-induced cytosolic calcium influx preincubated for 30 mins followed by ATP addition by Fluo-4 AM dye-based fluorescence assay
# T7 sequence (Q99572 whole entry): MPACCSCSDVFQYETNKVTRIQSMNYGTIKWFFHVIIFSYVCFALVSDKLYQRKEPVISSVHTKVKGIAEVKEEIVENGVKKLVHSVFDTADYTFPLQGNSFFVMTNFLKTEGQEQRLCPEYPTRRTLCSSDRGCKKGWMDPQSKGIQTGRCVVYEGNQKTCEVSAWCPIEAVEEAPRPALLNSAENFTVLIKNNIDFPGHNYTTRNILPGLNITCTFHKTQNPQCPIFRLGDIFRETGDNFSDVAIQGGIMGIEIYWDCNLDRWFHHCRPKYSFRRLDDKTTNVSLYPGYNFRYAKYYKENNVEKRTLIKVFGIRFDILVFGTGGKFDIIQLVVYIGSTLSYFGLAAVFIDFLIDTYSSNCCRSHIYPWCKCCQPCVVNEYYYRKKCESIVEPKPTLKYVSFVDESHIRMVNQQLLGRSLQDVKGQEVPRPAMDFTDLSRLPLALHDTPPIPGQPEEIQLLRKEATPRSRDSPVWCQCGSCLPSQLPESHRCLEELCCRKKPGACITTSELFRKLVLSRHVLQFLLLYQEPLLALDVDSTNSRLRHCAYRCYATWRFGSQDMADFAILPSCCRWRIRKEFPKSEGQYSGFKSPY
# [9] = biological target: T1, P2X purinoceptor 1 (Homo sapiens); test: Antagonist activity P2X1 receptor in Apyrase pre-treated human platelets assessed as inhibition of collagen-induced platelet aggregation pre-incubated for 30 mins before collagen stimulation by aggregometry relative to control
# [10] = biological target: T1, P2X purinoceptor 1 (Homo sapiens); test: Antagonist activity P2X1 receptor in Apyrase pre-treated human platelets assessed as inhibition of TRAP6-induced platelet aggregation pre-incubated for 30 mins before TRAP6 stimulation by aggregometry relative to control
# [11] = biological target: T1, P2X purinoceptor 1 (Homo sapiens); test: Antagonist activity P2X1 receptor in human platelets assessed as inhibition of ADP-induced platelet aggregation pre-incubated for 30 mins before ADP stimulation by aggregometry relative to control
# [12] = biological target: T1, P2X purinoceptor 1 (Homo sapiens); test: as §1, with “Negative allosteric modulator” for “Antagonist”, “of maximal response for” for “of”, “influx at 100 to 500 nM” for “influx”
# [13] = biological target: T8, P2X purinoceptor 4 (Homo sapiens) (UniProt Q99571); test: Antagonist activity at human P2X4 receptor expressed in human 1321N1 cells assessed as inhibition of ATP-induced cytosolic calcium influx at 10 uM preincubated for 30 mins followed by ATP addition by Fluo-4 AM dye-based fluorescence assay relative to control
# T8 sequence (whole entry): T6 sequence (Q99571 whole entry)
# [14] = biological target: T1, P2X purinoceptor 1 (Homo sapiens); test: Antagonist activity at non-desensitizing human P2X1 receptor ( P2X2/P2X1 chimera) expressed in human 1321N1 cells assessed as inhibition of ATP-induced calcium influx at 1 uM pre-incubated for 30 mins before ATP stimulation by FLIPR assay relative to control
# [15] = biological target: T1, P2X purinoceptor 1 (Homo sapiens); test: as §1
Structure (SMILES),inhibition [1] [%],IC50 [2] [nM],IC50 [3] [µM],inhibition [4] [%],IC50 [5] [µM],inhibition [6] [%],IC50 [7] [nM],IC50 [8] [nM],inhibition [9] [%],inhibition [10] [%],inhibition [11] [%],inhibition [12],inhibition [13] [%],inhibition [14] [%],inhibition [15]
O=C(Nc1cc(F)cc(F)c1)c1cc(Cl)ccc1O,62,50.5,> 10,4,> 10,2,155,160,47,5,14,–,–,–,–
O=C(Nc1cc(C(F)(F)F)cc(C(F)(F)F)c1)c1cccc(F)c1O,80,70.6,> 10,–,> 10,38,≥ 10000,857,–,–,–,Active,49,–,–
O=C(Nc1cc(C(F)(F)F)cc(C(F)(F)F)c1)c1cc(Cl)ccc1O [IMD-0354],> 75,19.2,> 10,-7,> 10,11,156,175,–,–,–,Active,–,> 40,Dose-dependent effect
